Reference: the NIST ThermoML archive (doi:10.1016/j.jct.2018.09.027)

Assay: molar heat capacity at constant pressure
Conditions: 100 kPa, Crystal, DSC

O=c1oc2c(O)c(O)cc3c(=O)oc4c(O)c(O)cc1c4c23 [2,3,7,8-tetrahydroxychromeno[5,4,3-cde]chromene-5,10-dione]
Conditions | molar heat capacity at constant pressure [J/K/mol]
260.15 K | 292.07
261.15 K | 292.68
262.15 K | 293.58
263.15 K | 294.64
264.15 K | 295.85
265.15 K | 297.06
266.15 K | 297.97
267.15 K | 298.87
268.15 K | 299.93
269.15 K | 301.59
270.15 K | 303.41
271.15 K | 303.41
272.15 K | 304.01
273.15 K | 305.37
274.15 K | 307.49
275.15 K | 308.39
276.15 K | 308.09
277.15 K | 308.54
278.15 K | 310.36
279.15 K | 311.57
280.15 K | 311.26
281.15 K | 312.62
282.15 K | 314.29
283.15 K | 315.19
284.15 K | 315.95
285.15 K | 316.25
286.15 K | 317.16
287.15 K | 318.97
288.15 K | 320.33
289.15 K | 319.72
290.15 K | 320.48
291.15 K | 321.84
292.15 K | 323.35
293.15 K | 323.05
294.15 K | 324.26
295.15 K | 325.47
296.15 K | 326.4
297.15 K | 327.73
298.15 K | 328.85
299.15 K | 329.64
300.15 K | 330.7
301.15 K | 331.91
302.15 K | 332.12
303.15 K | 333.63
304.15 K | 334.99
305.15 K | 335.69
306.15 K | 336.45
307.15 K | 337.53
308.15 K | 338.02
309.15 K | 339.27
310.15 K | 339.49
311.15 K | 340.77
312.15 K | 341.16
313.15 K | 342.26
314.15 K | 343.3
315.15 K | 343.78
316.15 K | 345.03
317.15 K | 346.85
318.15 K | 347.5
319.15 K | 348.3
320.15 K | 349.21
321.15 K | 350.81
322.15 K | 351.92
323.15 K | 352.53
324.15 K | 353.13
325.15 K | 354.43
326.15 K | 355.55
327.15 K | 356.86
328.15 K | 357.07
329.15 K | 358.38
330.15 K | 359.69
331.15 K | 361.39
332.15 K | 362.3
333.15 K | 363.1
334.15 K | 364.21
335.15 K | 365.02
336.15 K | 366.23
337.15 K | 367.13
338.15 K | 368.24
339.15 K | 369.55
340.15 K | 370.36
341.15 K | 370.96
342.15 K | 371.07
343.15 K | 372.48
344.15 K | 373.08
345.15 K | 373.69
346.15 K | 374.1
347.15 K | 375.31
348.15 K | 376.31
349.15 K | 377.02
350.15 K | 378.82
351.15 K | 379.03
352.15 K | 379.54
353.15 K | 381.35
354.15 K | 383.99
355.15 K | 385.91
356.15 K | 385.3
357.15 K | 386.51
358.15 K | 387.62
359.15 K | 388.02
360.15 K | 390.04
361.15 K | 391.3
362.15 K | 392.55
363.15 K | 393.1
364.15 K | 393.5
365.15 K | 394.2
366.15 K | 395.1
367.15 K | 396
368.15 K | 396.5
369.15 K | 397.3
370.15 K | 397.8
371.15 K | 398
372.15 K | 399.5
373.15 K | 400.1
374.15 K | 401.2
375.15 K | 402.5
376.15 K | 403.1
377.15 K | 403.8
378.15 K | 404.5
379.15 K | 405.3
380.15 K | 406.12
381.15 K | 407.6
382.15 K | 408.2
383.15 K | 409.5
384.15 K | 410.1
385.15 K | 411.31
386.15 K | 412.22
387.15 K | 413.52
388.15 K | 414.82
389.15 K | 415.43
390.15 K | 416.64
391.15 K | 417.54
392.15 K | 418.85
393.15 K | 419.15
394.15 K | 420.36
395.15 K | 421.26
396.15 K | 421.57
397.15 K | 422.17
398.15 K | 423.08
399.15 K | 423.98
400.15 K | 424.59
401.15 K | 424.59
402.15 K | 425.19
403.15 K | 426.4
404.15 K | 427.31
405.15 K | 427
406.15 K | 427.31
407.15 K | 427.91
408.15 K | 429.42
409.15 K | 430.03
410.15 K | 430.78
411.15 K | 431.39
412.15 K | 432.44
413.15 K | 432.9
414.15 K | 433.5
415.15 K | 434.56
416.15 K | 435.77
417.15 K | 436.2
418.15 K | 437
419.15 K | 438.2
420.15 K | 439.1
421.15 K | 440.5
422.15 K | 441.2
423.15 K | 442.3
424.15 K | 443.93
425.15 K | 444.5
426.15 K | 444.8
427.15 K | 445.1
428.15 K | 445.9
429.15 K | 446.2
430.15 K | 446.8
431.15 K | 447.3
432.15 K | 448.2
433.15 K | 448.6
434.15 K | 449.4
435.15 K | 450.58
436.15 K | 451.79
437.15 K | 452.39
438.15 K | 452.69
439.15 K | 452.99
440.15 K | 453.9
441.15 K | 454.71
442.15 K | 455.32
443.15 K | 455.41
444.15 K | 455.71
445.15 K | 456.02
446.15 K | 457.53
447.15 K | 457.83
448.15 K | 458.43
449.15 K | 459.04
450.15 K | 459.64
451.15 K | 459.94
452.15 K | 460.2
453.15 K | 460.85
454.15 K | 461.14
455.15 K | 460.85
456.15 K | 461.3
457.15 K | 461.76
458.15 K | 462.11
459.15 K | 462.61
460.15 K | 463.82
461.15 K | 464.57
462.15 K | 465.08
463.15 K | 466.38
464.15 K | 467.05
465.15 K | 468.71
466.15 K | 468.5
467.15 K | 469
468.15 K | 469.5
469.15 K | 470.1
470.15 K | 470.8
471.15 K | 471.2
472.15 K | 471.5
473.15 K | 472.94
474.15 K | 473.85
475.15 K | 474.15
476.15 K | 474.75
477.15 K | 475.05
478.15 K | 476.26
479.15 K | 477.17
480.15 K | 477.47
481.15 K | 478.38
482.15 K | 479.59
483.15 K | 480.19
484.15 K | 480.39
485.15 K | 481.19
486.15 K | 482
487.15 K | 482.31
488.15 K | 482.61
489.15 K | 483.31
490.15 K | 484.21
491.15 K | 485.63
492.15 K | 486.93
493.15 K | 487.54
494.15 K | 488.84
495.15 K | 489.26
496.15 K | 489.26
497.15 K | 489.56
498.15 K | 489.26
499.15 K | 490.77
500.15 K | 491.28
501.15 K | 492.18
502.15 K | 493.28
503.15 K | 494.19
504.15 K | 495
505.15 K | 495.3
506.15 K | 495
507.15 K | 494.7
508.15 K | 495
509.15 K | 495
510.15 K | 495.3
511.15 K | 496
512.15 K | 497.72
513.15 K | 497.82
514.15 K | 498.32
515.15 K | 499.23
516.15 K | 499.5
517.15 K | 500.1
518.15 K | 501.3
519.15 K | 501.8
520.15 K | 502.5
521.15 K | 503.1
522.15 K | 503.6
